Our source for the Ki values is BindingDB's records for PubMed 10604951 (University of Colorado, 2000).

Bounds are passed on as bounds.

One may read the Ki as a measure of affinity in units of concentration, obtained from inhibition or displacement.

The experiment concerns the target Glutamate receptor ionotropic, NMDA 1 (Rattus norvegicus, UniProt P35439).
`NC(=O)N1c2ccccc2C=Cc2ccccc21` [5H-dibenzo[b,f]azepine-5-carboxamide]: the Ki is greater than 10 µM.
To `COC(=O)c1cc(NC(=O)N(c2ccccc2)c2ccccc2)c2c(Cl)cc(Cl)cc2n1` [DCUK-Ome] belongs greater than 10 µM; to `O=C(O)c1cc(NC(=O)N(c2ccccc2)c2ccccc2)c2c(Cl)cc(Cl)cc2n1` [DCUKA], greater than 10 µM.
